ChEMBL document CHEMBL5321222, “N(14)-substituted evodiamine derivatives as dual topoisomerase 1/tubulin-Inhibiting anti-gastrointestinal tumor agents” (Eur J Med Chem, 2023)
The source made the active and inactive calls. No cut-off for these calls is given here.

Experiments:
RKO [1] = assay: Induction of morphological changes in human RKO cells assessed as cell shrinkage at 0.05 to 0.2 uM incubated for 24 hrs by Giemsa staining based micrscopic analysis; assay type: functional; conditions: dose 0.05-0.2 µM
RKO [2] = assay: Antiproliferative activity against human RKO cells assessed as reduction in cell viability incubated for 72 hrs by MTT assay; assay type: functional, cell-based
RKO [3] = assay: Induction of apoptosis in human RKO cells assessed as early apoptotic cells at 0.1 uM incubated for 24 hrs by propidium iodide and Annexin V/FITC staining based flow cytometry assay (reference value: 0.16%); assay type: functional
MGC-803 [4] = assay: Induction of apoptosis in human MGC-803 cells assessed as early apoptotic cells at 0.1 uM incubated for 24 hrs by propidium iodide and Annexin V/FITC staining based flow cytometry assay (reference value: 1.85%); assay type: functional
MGC-803 [5] = assay: Inhibition of colony formation in human MGC-803 cells incubated for 7 days by crystal violet staining based assay; assay type: functional, cell-based; conditions: dose 10-90 nM, time 7.0 day
RKO [6] = assay: Inhibition of colony formation in human RKO cells at 90 nM incubated for 7 days by crystal violet staining based assay; assay type: functional, cell-based; conditions: time 7.0 day
MGC-803 [7] = assay: Inhibition of colony formation in human MGC-803 cells at 90 nM incubated for 7 days by crystal violet staining based assay; assay type: functional, cell-based; conditions: time 7.0 day
RKO [8] = assay: Induction of apoptosis in human RKO cells assessed as late apoptotic cells at 0.05 uM incubated for 24 hrs by propidium iodide and Annexin V/FITC staining based flow cytometry assay (reference value: 0.50%); assay type: functional
MGC-803 [9] = assay: Inhibition of cell […] in human MGC-803 cells incubated for 24 hrs by scratch wound healing assay; assay type: functional, cell-based; conditions: dose 12.5-50 nM
SW480 = assay: Antiproliferative activity against human SW480 cells assessed as reduction in cell viability incubated for 72 hrs by MTT assay; assay type: functional, cell-based; conditions: SW480, 72 h
[10] = target: T1, DNA topoisomerase 1 (Homo sapiens) (UniProt P11387); assay: Inhibition of topoisomerase 1 (unknown origin) at 50 uM using PBR322 DNA as substrate incubated for 30 mins by agarose gel electrophoresis relative to control
T1 sequence (whole entry): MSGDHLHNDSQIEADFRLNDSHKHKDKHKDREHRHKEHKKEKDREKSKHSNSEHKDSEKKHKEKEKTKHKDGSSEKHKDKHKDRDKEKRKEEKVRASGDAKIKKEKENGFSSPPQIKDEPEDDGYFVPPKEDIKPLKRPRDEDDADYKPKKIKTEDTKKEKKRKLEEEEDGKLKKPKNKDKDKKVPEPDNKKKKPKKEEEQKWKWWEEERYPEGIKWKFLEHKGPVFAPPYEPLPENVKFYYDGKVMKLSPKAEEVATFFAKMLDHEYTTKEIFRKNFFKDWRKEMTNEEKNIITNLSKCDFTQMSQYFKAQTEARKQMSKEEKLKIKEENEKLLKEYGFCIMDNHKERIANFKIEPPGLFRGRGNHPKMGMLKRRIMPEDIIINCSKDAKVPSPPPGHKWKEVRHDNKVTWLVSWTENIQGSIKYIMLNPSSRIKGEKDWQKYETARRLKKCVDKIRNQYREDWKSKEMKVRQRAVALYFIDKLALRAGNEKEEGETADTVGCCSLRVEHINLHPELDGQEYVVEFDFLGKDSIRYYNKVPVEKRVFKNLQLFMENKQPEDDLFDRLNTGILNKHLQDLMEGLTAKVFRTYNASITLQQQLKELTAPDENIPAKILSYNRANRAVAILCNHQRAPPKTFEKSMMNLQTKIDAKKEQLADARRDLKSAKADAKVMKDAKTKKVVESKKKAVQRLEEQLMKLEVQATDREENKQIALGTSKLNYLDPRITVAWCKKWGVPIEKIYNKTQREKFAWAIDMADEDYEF

MGC-803 [11] = assay: Antiproliferative activity against human MGC-803 cells assessed as reduction in cell viability incubated for 24 hrs by BrdU staining based fluorescence microscopic analysis; assay type: functional; conditions: dose 10-90 nM
MGC-803 [12] = assay: Induction of apoptosis in human MGC-803 cells assessed as late apoptotic cells at 0.1 uM incubated for 24 hrs by propidium iodide and Annexin V/FITC staining based flow cytometry assay (reference value: 4.10%); assay type: functional
[13] = Induction of cell cycle arrest in human RKO cells assessed as accumulation of cells at G2/M phase at 0.05 uM incubated for 24 hrs by propidium iodide staining based flow cytometry analysis; assay type: functional
RKO [14] = assay: Induction of apoptosis in human RKO cells assessed as late apoptotic cells at 0.1 uM incubated for 24 hrs by propidium iodide and Annexin V/FITC staining based flow cytometry assay (reference value: 0.50%); assay type: functional
Tubulin (Homo sapiens) = Tubulin (Homo sapiens) (UniProt P68371+Q9H4B7+P0DPH7+P68366+Q13509+Q71U36+P04350+Q3ZCM7+P07437+P68363+Q9BQE3+Q6PEY2+Q13885+Q9BVA1+Q9BUF5); assay: Induction of microtubule disruption in human RKO cells assessed as atrophied nucleus at 50 to 200 nM incubated for 24 hrs by laser confocal microscopic analysis; assay type: cell-based; conditions: dose 50-200 nM
MGC-803 [15] = assay: Antiproliferative activity against human MGC-803 cells assessed as reduction in cell viability incubated for 72 hrs by MTT assay; assay type: functional, cell-based; conditions: MGC-803, 72 h

IC50 (SW480): 710 nM | inhibition [10]: 58.3% | Activity (Tubulin (Homo sapiens)): Active | IC50 (MGC-803 [15]): 90 nM
Structure (SMILES): CCCN1c2ccccc2C(=O)N2CCc3c([nH]c4ccccc34)C21 (configuration not stated)
Activity (RKO [1]): Active | IC50 (RKO [2]): 200 nM | Activity (RKO [3]): 14.52% | Activity (MGC-803 [4]): 6.76% | inhibition (MGC-803 [5]): Dose-Dependent Effect | inhibition (RKO [6]): Active | inhibition (MGC-803 [7]): Active | Activity (RKO [8]): 21.45% | inhibition (MGC-803 [9]): Dose-Dependent Effect | Activity (MGC-803 [11]): Dose-Dependent Effect | Activity (MGC-803 [12]): 24.63% | Activity [13]: 40.55% | Activity (RKO [14]): 33.41%
